# Assay results: US20240418704A1, “EPIGENETIC TARGETS IN CLONAL HEMATOPOIESIS” (Memorial Sloan-Kettering Cancer Center, priority 2021, published 2024)
# Test system: HSPCs co-cultured with BMECs
# Assay: BMEC co-culture system: cell-type specific differentiation readout in response to small molecules
# Format: cell-based, murine
# Details: Cd11b+Gr1+, Lin neg, GMP, MEP and LSK cells after contacting the cells with the agent, FIGS. 4A-4C
# Description: FIGS. 4A-4C. BMEC co-culture system can be used to readout cell-type specific dependencies in response to small molecules and single guide RNAs (sgRNAs).
# A platform was adopted whereby primary murine HSPCs are co-cultured with bone marrow endothelial cells that allow for maintenance and expansion of HSPCs (FIG. 1). […] Thus, the adopted HSPC-BMEC co-culture platform is a robust system to study genetically defined murine HSPCs with CH genomic modifications.
smiles,measurement,value
Cc1nc(Nc2ncc(C(=O)Nc3c(C)cccc3Cl)s2)cc(N2CCN(CCO)CC2)n1 [Dasatanib],effect on differentiation (percentage of heme-expression and cell differentiation),inhibits differentiation
